Activity calls are given as the source filed them. No rule for the calls is given here.
System: HepG2 viability, CellTiter-Glo ATP luminescence, overnight
Experiment: cytotoxicity in HepG2 hepatoma cells – cell-based, ATP luminescence, cherry-pick, cytotoxicity control for Trib1 inducer project, dose response (AID 1053145)

CN1C(=O)c2cc(NC(=O)c3ccc(C(F)(F)F)cc3)ccc2OC[C@@H]2O[C@H](CC(=O)NC3Cc4ccccc4C3)CC[C@@H]21
AC50: > 25 µM (inactive)

CN1C(=O)c2cc(NC(=O)c3ccc(C(F)(F)F)cc3)ccc2OC[C@@H]2O[C@@H](CC(=O)NC3Cc4ccccc4C3)CC[C@@H]21
AC50: > 25 µM (inactive)

Source: PubChem BioAssay AID1053145 (Broad Institute, 2014)
